Experiment: xn = mol fraction of the nth substance listed

NCC(=O)NCC(=O)NCC(=O)NCC(=O)O + O
viscosity [mPa·s], 101 kPa
Settings | x1 = 9.96e-05 | x1 = 0.000119 | x1 = 0.0002046 | x1 = 0.0002554 | x1 = 0.0003681 | x1 = 0.0004221 | x1 = 0.0005133
298.15 K | 0.893 | 0.894 | 0.8971 | 0.8987 | 0.9022 | 0.9037 | 0.9045
308.15 K | 0.7219 | 0.7227 | 0.7246 | 0.7261 | 0.7289 | 0.7304 | 0.7337
318.15 K | 0.5985 | 0.5992 | 0.6011 | 0.6019 | 0.6045 | 0.606 | 0.6079

COC(=O)c1ccccc1 + O=C1CCCCC1
viscosity [mPa·s], 101 kPa
Settings | x1 = 0.0859 | x1 = 0.1728 | x1 = 0.2643 | x1 = 0.3589 | x1 = 0.4562 | x1 = 0.5517 | x1 = 0.6575 | x1 = 0.7664 | x1 = 0.8794
303.15 K | 1.713 | 1.643 | 1.593 | 1.552 | 1.535 | 1.548 | 1.56 | 1.597 | 1.646
313.15 K | 1.422 | 1.367 | 1.332 | 1.299 | 1.282 | 1.292 | 1.307 | 1.337 | 1.375

CCOC(=O)CCl + CCCCCCC
viscosity [mPa·s], 101.33 kPa
Settings | x1 = 0.1037 | x1 = 0.203 | x1 = 0.3009 | x1 = 0.4005 | x1 = 0.4992 | x1 = 0.6048 | x1 = 0.705 | x1 = 0.8022 | x1 = 0.8954
298.15 K | 0.419 | 0.45 | 0.484 | 0.53 | 0.585 | 0.651 | 0.726 | 0.817 | 0.93
303.15 K | 0.398 | 0.424 | 0.457 | 0.498 | 0.545 | 0.608 | 0.676 | 0.761 | 0.859
308.15 K | 0.378 | 0.402 | 0.432 | 0.469 | 0.522 | 0.569 | 0.634 | 0.71 | 0.8

COC(=O)c1ccccc1 + CCCCCCCCCC
101 kPa
Settings | viscosity [mPa·s]
298.15 K, x2 = 0.0262 | 1.743
298.15 K, x2 = 0.0672 | 1.629
298.15 K, x2 = 0.1282 | 1.488
298.15 K, x2 = 0.172 | 1.406
298.15 K, x2 = 0.2455 | 1.29
298.15 K, x2 = 0.2831 | 1.234
298.15 K, x2 = 0.3238 | 1.184
298.15 K, x2 = 0.3645 | 1.141
298.15 K, x2 = 0.4095 | 1.095
298.15 K, x2 = 0.458 | 1.05
298.15 K, x2 = 0.5093 | 1.012
298.15 K, x2 = 0.563 | 0.972
298.15 K, x2 = 0.6077 | 0.946
298.15 K, x2 = 0.6694 | 0.915
298.15 K, x2 = 0.7276 | 0.891
298.15 K, x2 = 0.8044 | 0.868
298.15 K, x2 = 0.8571 | 0.855
298.15 K, x2 = 0.9293 | 0.845
308.15 K, x2 = 0.0467 | 1.4
308.15 K, x2 = 0.0764 | 1.34
308.15 K, x2 = 0.1148 | 1.271
308.15 K, x2 = 0.1464 | 1.219
308.15 K, x2 = 0.1853 | 1.163
308.15 K, x2 = 0.2147 | 1.12
308.15 K, x2 = 0.2537 | 1.076
308.15 K, x2 = 0.2939 | 1.031
308.15 K, x2 = 0.3391 | 0.988
308.15 K, x2 = 0.3803 | 0.956
308.15 K, x2 = 0.429 | 0.922
308.15 K, x2 = 0.4756 | 0.894
308.15 K, x2 = 0.5274 | 0.866
308.15 K, x2 = 0.575 | 0.841
308.15 K, x2 = 0.6318 | 0.816
308.15 K, x2 = 0.6926 | 0.79
308.15 K, x2 = 0.7434 | 0.775
308.15 K, x2 = 0.8116 | 0.759
308.15 K, x2 = 0.887 | 0.747
318.15 K, x2 = 0.0153 | 1.249
318.15 K, x2 = 0.0485 | 1.196
318.15 K, x2 = 0.0774 | 1.151
318.15 K, x2 = 0.113 | 1.101
318.15 K, x2 = 0.1467 | 1.058
318.15 K, x2 = 0.1837 | 1.015
318.15 K, x2 = 0.2171 | 0.977
318.15 K, x2 = 0.2582 | 0.936
318.15 K, x2 = 0.2931 | 0.903
318.15 K, x2 = 0.3395 | 0.863
318.15 K, x2 = 0.3892 | 0.826
318.15 K, x2 = 0.4363 | 0.795
318.15 K, x2 = 0.4972 | 0.76
318.15 K, x2 = 0.5486 | 0.734
318.15 K, x2 = 0.6025 | 0.713
318.15 K, x2 = 0.6669 | 0.692
318.15 K, x2 = 0.7208 | 0.678
318.15 K, x2 = 0.7971 | 0.663
318.15 K, x2 = 0.8627 | 0.655
